Experiments:
EGFR^WT = target: T1, EGFR^WT (Homo sapiens, UniProt P00533); experiment: FRET-based Z'-Lyte kinase assay, EGFR WT; type: biochemical; conditions: AV ± SD; 1.5 h incubation
T1 construct: purchased Invitrogen
Protocol: (§1) The kinase activity assay was performed and optimized according to the instructions of Z’‐LYTE™ kinase assay kits from the manufacturer (PV4879, Life, America). In our experiments, 10 concentration gradients from 0.01 nmol/L to 1.0 μmol/L were used for all the compounds.

EGFR^Del 19 = target: T2, EGFR^Del 19 (Homo sapiens, UniProt P00533, DEL746-750); experiment: FRET-based Z'-Lyte kinase assay, EGFR Del 19; type: biochemical; conditions: AV ± SD; 1.5 h incubation
T2 construct: purchased Invitrogen
Protocol: as §1

[1] = test system: H1975 (EGFR^L858R/T790M) cells; experiment: CCK-8 cell growth assay, H1975; type: cell-based; conditions: Homo sapiens, NCI-H1975; CCK-8, 72 h; AV ± SD; read-out: antiproliferative IC50 H1975
Protocol: (§2) Cells were seeded into 96‐well plates at a density of 1500~3000/well in complete medium overnight. Then, cells were treated with various concentrations (0.01~1000 nmol/L) of YL143 for additional 3 days. Viable cell numbers were determined by Cell Counting Kit 8 (CCK8, CK04, Dojindo Laboratories, Japan). Each assay consisted of three replicate wells and repeated at least three times. […] Each IC50 value was expressed as mean ± SD.

A431 (EGFR^WT) cells = experiment: CCK-8 cell growth assay, A431; type: cell-based; conditions: Homo sapiens, A-431; CCK-8, 72 h; read-out: antiproliferative IC50 A431
Protocol: as §2

A549 (EGFR^WT) cells = experiment: CCK-8 cell growth assay, A549; type: cell-based; conditions: Homo sapiens, A549; CCK-8, 72 h; read-out: antiproliferative IC50 A549
Protocol: as §2

BaF3 = experiment: CCK-8 assay, BaF3 cells; type: cell-based; conditions: Mus musculus, AV±SD, read-out: anti-proliferative activity BaF3
Protocol: as §2
(§3) The anti-proliferative activities of the compounds were evaluated using CCK-8 assay. The data were means from at least four independent experiments.

BaF3-EGFR ^L858R = experiment: CCK-8 assay, BaF3-EGFR L858R stable cells; type: cell-based; conditions: Ba/F3 EGFR-L858R; CCK-8; AV±SD; read-out: anti-proliferative activity BaF3-EGFR L858R
Protocol: as §2, §3

AKT1 = AKT1 (Homo sapiens, UniProt P31749); experiment: Z'-Lyte kinase panel, AKT1; type: biochemical; conditions: 1.5 hrs incubation
Chain of AKT1 (P31749 whole entry, species assumed): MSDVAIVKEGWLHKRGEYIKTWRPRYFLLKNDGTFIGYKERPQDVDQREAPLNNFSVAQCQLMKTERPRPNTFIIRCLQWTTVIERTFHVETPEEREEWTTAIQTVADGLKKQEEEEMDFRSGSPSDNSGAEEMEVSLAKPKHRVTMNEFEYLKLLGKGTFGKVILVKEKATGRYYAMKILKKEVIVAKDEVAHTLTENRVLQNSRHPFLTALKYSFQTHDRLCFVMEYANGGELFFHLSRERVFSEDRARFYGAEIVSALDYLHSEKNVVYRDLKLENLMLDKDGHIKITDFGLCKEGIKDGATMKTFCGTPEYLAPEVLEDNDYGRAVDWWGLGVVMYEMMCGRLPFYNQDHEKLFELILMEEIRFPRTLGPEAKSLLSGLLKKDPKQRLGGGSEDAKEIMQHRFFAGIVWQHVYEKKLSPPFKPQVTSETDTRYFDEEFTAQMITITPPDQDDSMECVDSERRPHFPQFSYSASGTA
Protocol: (§4) Kinase activity assays were performed using the FRET-based Z′-Lyte assay according to the manufacturer’s instructions. The compounds were incubated with the kinase reaction mixture for 1.5 hrs before measurement. The data are means from two independent experiments and the variations are below 20%.

AKT2 = AKT2 (Homo sapiens, UniProt P31751); experiment: Z'-Lyte kinase panel, AKT2; type: biochemical; conditions: 1.5 hrs incubation
Chain of AKT2 (P31751 whole entry, species assumed): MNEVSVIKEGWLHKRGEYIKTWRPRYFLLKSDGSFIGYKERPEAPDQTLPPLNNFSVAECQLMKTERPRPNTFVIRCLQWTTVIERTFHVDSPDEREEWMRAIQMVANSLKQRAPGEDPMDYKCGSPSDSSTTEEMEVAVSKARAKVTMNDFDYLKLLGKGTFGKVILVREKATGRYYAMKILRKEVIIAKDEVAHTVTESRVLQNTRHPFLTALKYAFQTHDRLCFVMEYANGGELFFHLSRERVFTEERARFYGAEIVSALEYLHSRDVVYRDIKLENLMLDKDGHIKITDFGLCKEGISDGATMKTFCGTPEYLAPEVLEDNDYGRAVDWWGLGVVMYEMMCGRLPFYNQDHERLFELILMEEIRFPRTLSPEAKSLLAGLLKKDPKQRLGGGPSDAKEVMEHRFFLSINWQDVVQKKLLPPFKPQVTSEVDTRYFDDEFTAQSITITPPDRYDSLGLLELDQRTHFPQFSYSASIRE
Protocol: as §4

PDGFRA = PDGFRA (Homo sapiens, UniProt P16234); experiment: Z'-Lyte kinase panel, PDGFRA; type: biochemical; conditions: 1.5 hrs incubation
Chain of PDGFRA (P16234 24-1089, species assumed): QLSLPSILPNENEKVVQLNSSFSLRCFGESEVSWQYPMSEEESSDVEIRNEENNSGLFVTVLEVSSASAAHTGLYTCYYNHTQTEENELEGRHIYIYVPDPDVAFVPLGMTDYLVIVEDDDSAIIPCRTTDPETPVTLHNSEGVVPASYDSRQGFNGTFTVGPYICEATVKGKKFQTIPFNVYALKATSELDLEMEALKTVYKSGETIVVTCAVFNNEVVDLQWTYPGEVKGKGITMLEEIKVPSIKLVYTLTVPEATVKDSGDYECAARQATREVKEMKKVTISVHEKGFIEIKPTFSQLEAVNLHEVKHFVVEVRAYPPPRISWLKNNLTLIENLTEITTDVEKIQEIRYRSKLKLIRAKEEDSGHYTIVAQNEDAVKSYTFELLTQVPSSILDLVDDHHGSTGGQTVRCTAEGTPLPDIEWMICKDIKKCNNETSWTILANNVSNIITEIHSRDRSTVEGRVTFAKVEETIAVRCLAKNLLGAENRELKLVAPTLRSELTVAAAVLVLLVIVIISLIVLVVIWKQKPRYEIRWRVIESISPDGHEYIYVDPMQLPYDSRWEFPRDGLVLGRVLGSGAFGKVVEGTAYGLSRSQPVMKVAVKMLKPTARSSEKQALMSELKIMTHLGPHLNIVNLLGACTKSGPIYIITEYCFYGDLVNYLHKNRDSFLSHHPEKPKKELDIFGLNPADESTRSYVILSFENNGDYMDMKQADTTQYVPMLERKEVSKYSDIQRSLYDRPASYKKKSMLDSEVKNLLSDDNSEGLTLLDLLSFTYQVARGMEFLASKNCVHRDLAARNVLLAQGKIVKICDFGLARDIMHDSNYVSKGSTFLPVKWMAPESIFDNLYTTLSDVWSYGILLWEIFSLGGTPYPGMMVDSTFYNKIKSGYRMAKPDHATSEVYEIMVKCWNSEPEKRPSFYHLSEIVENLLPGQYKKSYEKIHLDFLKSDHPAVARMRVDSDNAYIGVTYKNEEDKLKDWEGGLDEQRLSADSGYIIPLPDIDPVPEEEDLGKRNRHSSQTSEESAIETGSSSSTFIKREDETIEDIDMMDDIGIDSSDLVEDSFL
Protocol: as §4

EGFR = target: T3, EGFR (Homo sapiens, UniProt P00533); experiment: Z'-Lyte kinase panel, EGFR; type: biochemical; conditions: 1.5 hrs incubation
T3 construct: purchased Invitrogen
Protocol: All EGFR (WT, L858R, L858R/T790M, etc.) recombinant human protein was purchased from Invitrogen. The kinase activity assay was performed and optimized according to the instructions of Z’‐LYTE™ kinase assay kits from the manufacturer (PV4879, Life, America). In our experiments, 10 concentration gradients from 0.01 nmol/L to 1.0 μmol/L were used for all the compounds.
as §4

FLT3 = FLT3 (Homo sapiens, UniProt P36888); experiment: Z'-Lyte kinase panel, FLT3; type: biochemical; conditions: 1.5 hrs incubation
Chain of FLT3 (P36888 27-993, species assumed): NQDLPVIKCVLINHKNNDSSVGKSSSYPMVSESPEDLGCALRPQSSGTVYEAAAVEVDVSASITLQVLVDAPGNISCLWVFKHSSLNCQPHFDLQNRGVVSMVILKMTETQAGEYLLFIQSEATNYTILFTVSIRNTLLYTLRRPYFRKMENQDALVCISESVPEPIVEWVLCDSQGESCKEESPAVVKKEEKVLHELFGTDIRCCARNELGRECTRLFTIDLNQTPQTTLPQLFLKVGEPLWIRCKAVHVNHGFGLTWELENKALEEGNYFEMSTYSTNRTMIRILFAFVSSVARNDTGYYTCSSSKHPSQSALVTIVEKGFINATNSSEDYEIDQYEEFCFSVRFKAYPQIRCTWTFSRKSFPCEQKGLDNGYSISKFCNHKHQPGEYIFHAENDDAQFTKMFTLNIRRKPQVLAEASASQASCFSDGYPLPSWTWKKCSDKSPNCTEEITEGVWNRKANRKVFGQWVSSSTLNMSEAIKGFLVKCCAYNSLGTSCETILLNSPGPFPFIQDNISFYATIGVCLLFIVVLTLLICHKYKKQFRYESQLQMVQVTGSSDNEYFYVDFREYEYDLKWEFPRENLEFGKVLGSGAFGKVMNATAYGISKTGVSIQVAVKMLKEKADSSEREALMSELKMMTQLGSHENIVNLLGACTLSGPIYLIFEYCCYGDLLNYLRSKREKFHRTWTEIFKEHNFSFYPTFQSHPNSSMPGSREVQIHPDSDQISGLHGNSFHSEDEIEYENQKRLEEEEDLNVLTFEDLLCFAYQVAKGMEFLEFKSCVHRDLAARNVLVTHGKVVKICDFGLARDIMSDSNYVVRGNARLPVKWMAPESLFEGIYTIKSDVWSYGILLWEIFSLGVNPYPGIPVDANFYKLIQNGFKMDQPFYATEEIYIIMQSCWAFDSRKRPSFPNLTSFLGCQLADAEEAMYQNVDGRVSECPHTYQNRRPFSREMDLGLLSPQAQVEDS
Protocol: as §4

TRKA = TRKA (Homo sapiens, UniProt P04629); experiment: Z'-Lyte kinase panel, TRKA; type: biochemical; conditions: 1.5 hrs incubation
Chain of TRKA (P04629 33-796, species assumed): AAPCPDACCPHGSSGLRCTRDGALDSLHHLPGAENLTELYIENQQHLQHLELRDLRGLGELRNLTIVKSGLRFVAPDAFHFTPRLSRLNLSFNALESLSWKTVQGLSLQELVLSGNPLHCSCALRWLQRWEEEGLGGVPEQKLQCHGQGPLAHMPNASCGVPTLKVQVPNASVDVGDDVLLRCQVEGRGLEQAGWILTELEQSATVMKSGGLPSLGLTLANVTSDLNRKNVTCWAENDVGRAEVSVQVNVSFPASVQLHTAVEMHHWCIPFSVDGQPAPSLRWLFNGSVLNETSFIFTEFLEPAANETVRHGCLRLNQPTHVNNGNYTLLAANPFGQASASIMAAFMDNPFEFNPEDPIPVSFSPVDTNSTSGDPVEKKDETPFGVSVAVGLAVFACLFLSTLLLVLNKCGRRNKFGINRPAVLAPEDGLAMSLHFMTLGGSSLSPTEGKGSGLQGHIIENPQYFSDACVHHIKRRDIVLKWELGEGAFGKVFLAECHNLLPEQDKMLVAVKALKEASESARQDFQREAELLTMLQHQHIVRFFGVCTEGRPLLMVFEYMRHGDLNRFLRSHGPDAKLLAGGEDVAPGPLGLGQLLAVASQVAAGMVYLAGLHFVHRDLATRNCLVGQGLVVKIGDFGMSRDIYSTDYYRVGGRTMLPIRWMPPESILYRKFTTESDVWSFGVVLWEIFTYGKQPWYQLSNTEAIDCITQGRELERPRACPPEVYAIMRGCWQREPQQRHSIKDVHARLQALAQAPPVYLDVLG
Protocol: as §4

[2] = Pharmacokinetic study in SD rats; type: in vivo, rat
Protocol: Sprague Dawley (SD) rats (180–220 g) were fasted overnight before drug administration. They could eat food and drink water freely during the study. Rats were grouped and treated with 25 and 5 mg/kg of YL143 in vehicle via oral gavage and i.v., respectively. Eyeground vein blood samples (0.20 mL) were collected from each animal at designed time point postdose (5, 30 min, 1, 2, 4, 8, 12, 24, 36, 48, 60, and 72 h.). Blood samples were centrifuged within 10 min at 900 g, and then, plasma was separated and stored at 4°C until analysis. Drug concentration was quantitatively detected using an API 300 mass spectrometer (Applied Biosystems, Canada) with TurboIonSpray source interface. Data acquisition and quantitation were performed using Analyst 1.4 (Applied Biosystems, Canada). All pharmacokinetic parameters were calculated by DAS 2.0 using a noncompartment model (Clinical drug research center of Shanghai University of Traditional Chinese Medicine, Shanghai, China).

EGFR^L858R/T790M = EGFR^L858R/T790M (Homo sapiens, UniProt P00533, L858R/T790M); experiment: Compound washout assay on H1975 cells (Western blot); type: cell-based; conditions: 100 nmol/L for 4 h, then washout, 24 h
Protocol: Cells were treated with various concentrations of compound for designed time. Then, cells were lysed using 1 × SDS sample lysis buffer (CST recommended) with protease and phosphatase inhibitors. Cell lysates were loaded and electrophoresed onto 8–12% SDS‐PAGE gel, and then, separated proteins were transferred to a PVDF film. The film was blocked with 5% fat‐free milk in TBS solution containing 0.5% Tween‐20 for 4 h at room temperature and then incubated with corresponding primary antibody (1:1000–1:200) overnight at 4°C. After washing with TBST, HRP‐conjugated secondary antibody was incubated for 2 h. And the protein signals were visualized by ECL Western Blotting Detection Kit (Thermo Scientific, Waltham, MA) and detected with Amersham Imager 600 system (GE, America).
Cells were treated with or without compound YL143 for 4 h at indicated concentration, respectively. Cells were harvested for Western blot analysis. […] NCI‐H1975 cells were treated with or without compound YL143(100 nmol/L) for 4 h, and then the medium with compound was removed and fresh medium was added. At the indicated time points, cells were harvest and proteins were extracted and subjected to Western blot analysis.

[3] = Sprague-Dawley, rat, plasma, iv, I.V. 5 mg/Kg
[4] = Sprague-Dawley, rat, plasma, po, P.O. 25 mg/Kg

## C=CC(=O)Nc1cc(C)cc(-n2c(=O)cc(C)c3cnc(Nc4ccc(N5CCN(C)CC5)cc4OC)nc32)c1 [YL143, N‐(3‐(2‐((2‐Methoxy‐4‐(4‐methylpiperazin‐1‐yl)phenyl)amino)‐5‐methyl‐7‐oxopyrido [2,3‐d]pyrimidin‐8(7H)‐yl)‐5‐methylphenyl)acrylamide]
EGFR^WT
  IC50: 185 ± 43.4 nM
EGFR^Del 19
  IC50: 81.5 ± 10.3 nM
[1]
  IC50: 45.2 ± 27.3 nM
A431 (EGFR^WT) cells
  IC50: > 1000 nM
A549 (EGFR^WT) cells
  IC50: > 1000 nM
BaF3
  IC50: > 10000 nM
BaF3-EGFR ^L858R
  IC50: 71 ± 41 nM
AKT1
  IC50: > 10000 nM
AKT2
  IC50: > 10000 nM
PDGFRA
  IC50: > 10000 nM
EGFR
  IC50: 35.3 nM
FLT3
  IC50: > 10000 nM
TRKA
  IC50: > 10000 nM
[2]; P.O. 25 mg/Kg vs I.V. 5 mg/Kg
  BA (oral bioavailability): 24.95%
[2]; P.O. 25 mg/Kg, 25 mg/kg
  T1/2: 6.13 h
[2]; Sprague-Dawley, rat, plasma, iv, 5 mg/kg, I.V. 5 mg/Kg
  half-life: 1.36 h
[2]; [3]
  AUC(0-inf): 1880 ng·h/mL
  Cmax: 3270 ng/mL
  Tmax: 0.08 h
[2]; Sprague-Dawley, rat, plasma, oral, 25 mg/kg, P.O. 25 mg/Kg vs I.V. 5 mg/Kg, read-out: BA (oral bioavailability)
  bioavailability: 25%
[2]; Sprague-Dawley, rat, plasma, po, 25 mg/kg, P.O. 25 mg/Kg
  half-life: 6.1 h
[2]; [4]
  AUC(0-inf): 2340 ng·h/mL
  Cmax: 160 ng/mL
  Tmax: 6.67 h
[2]; Sprague-Dawley, rat, plasma, single oral dosing 25 mg/kg
  Cmax: 297 nM
EGFR^L858R/T790M
  EGFR^L858R/T790M phosphorylation recovery after withdrawal: no EGFR^L858R/T790M phosphorylation recovery was observed

From PMC5911580, “YL143, a novel mutant selective irreversible EGFR inhibitor, overcomes EGFR^L858R, T790M‐mutant resistance in vitro and in vivo” (Cancer Medicine, 2018)
